Data as given in US11952584B2, “Functional peptides having antimicrobial activity against phytopathogenic microorganisms” (TOYOTA JIDOSHA KABUSHIKI KAISHA, priority 2019, dated 2024).
Several values for one entry are separate records, joined by “and”; a condition that tells them apart may be missing. Equal entries are not always repeated. Where two headings read alike, the source gives them in different places.

Tests used:
[1] = system: Colletotrichum destructivum; assay type: cell-based; conditions: 25° C., 1 day or 2 days
[2] = system: Colletotrichum orbiculare; assay type: cell-based; conditions: 25° C., 1 day or 2 days
Pyricularia oryzae = assay type: cell-based; conditions: 25° C., 1 day or 2 days
[3] = system: plant pathogenic filamentous fungi; assay type: cell-based; conditions: summary of Table 3
Botrytis cinerea = assay type: cell-based; conditions: 25° C., 1 day or 2 days
Fusarium oxysporum = assay type: cell-based
[4] = system: Colletotrichum destructivum; assay: Colletotrichum destructivum leaf inoculation test (Chinese cabbage leaf); assay type: in vivo; conditions: 25° C., 4 days, lesions by visual inspection
From the text: In the present example, a suspension comprising Colletotrichum destructivum and a peptide to be tested was dropped on a plant leaf, and lesions were then observed by visual inspection to evaluate the antimicrobial activity of the tested peptide. First, the pores of Colletotrichum destructivum were suspended in water to result in a spore concentration of 5×10^5 spores/ml, so as to prepare a water suspension of spores. Subsequently, peptides to be tested (TsORF18 (full length), TsORF18-40 a.a., and TsORF18-2) were each added to the water suspension of spores, so that the final concentration of the peptides to be tested became 0 μM, 1 μM, 10 μM or 100 μM. Thereafter, 10 μl each of the water suspension of spores containing the peptide to be tested was dropped on the front side and the back side of the leaf of Chinese cabbage (variety name: “Kigokoro 85”). In this condition, incubation was carried out at 25° C. for 4 days. Thereafter, the front and back sides of the leaf were observed by visual inspection.

Substance | Plate antimicrobial activity test Colletotrichum destructivum (level) ([1]; peptide 1 μM) | Plate antimicrobial activity test Colletotrichum destructivum (level) ([1]; peptide 10 μM) | Plate antimicrobial activity test Colletotrichum destructivum (level) ([1]; peptide 100 μM) | Plate antimicrobial activity test Collectotrichum orbiculare (level) ([2]; peptide 1 μM) | Plate antimicrobial activity test Collectotrichum orbiculare (level) ([2]; peptide 10 μM) | Plate antimicrobial activity test Collectotrichum orbiculare (level) ([2]; peptide 100 μM) | Plate antimicrobial activity test Pyricularia oryzae (level) (Pyricularia oryzae; peptide 1 μM) | Plate antimicrobial activity test Pyricularia oryzae (level) (Pyricularia oryzae; peptide 10 μM) | Plate antimicrobial activity test Pyricularia oryzae (level) (Pyricularia oryzae; peptide 100 μM) | germination inhibitory activity against plant pathogenic filamentous fungi (in words) [3] | Plate antimicrobial activity test Botrytis cinerea (level) (Botrytis cinerea; peptide 1 μM) | Plate antimicrobial activity test Botrytis cinerea (level) (Botrytis cinerea; peptide 10 μM) | Plate antimicrobial activity test Botrytis cinerea (level) (Botrytis cinerea; peptide 100 μM) | Plate antimicrobial activity test Fusarium oxysporum (level) (Fusarium oxysporum) | Leaf inoculation test Chinese cabbage/Colletotrichum destructivum ([4]; peptide 1 μM) | Leaf inoculation test Chinese cabbage/Colletotrichum destructivum ([4]; peptide 10 μM) | Leaf inoculation test Chinese cabbage/Colletotrichum destructivum ([4]; peptide 100 μM)
WRIWKGKT (listed as Solanum lycopersicum) [TsORF18-2-8aa-15] | 0 | 0 | 3 | 0 | 0 | 3 | 0 | 0 | 0 | extremely excellent germination inhibitory activity | 0 | 0 | 3 | 3 and 0 |  |  | 
FWRIWKGK (listed as Solanum lycopersicum) [TsORF18-2-8aa-14] | 0 | 0 | 3 | 0 | 0 | 3 | 0 | 0 | 0 | extremely excellent germination inhibitory activity | 0 | 0 | 3 | 3 and 0 | Δ | ∘ | ∘
WRIWK (listed as Solanum lycopersicum) [TsORF18-2-5aa-15] | 0 | 0 | 3 | 0 | 0 | 2 | 0 | 0 | 0 | extremely excellent germination inhibitory activity | 0 | 0 | 3 | 2 and 0 |  |  | 
ERTRKFWR (listed as Solanum lycopersicum) [TsORF18-2-8aa-9] | 0 | 0 | 0 | 0 | 0 | 1 | 0 | 0 | 1 | extremely excellent germination inhibitory activity | 0 | 0 | 3 | 3 and 0 |  |  | 
FPAFS (listed as Solanum lycopersicum) [TsORF18-2-5aa-4] | 0 | 0 | 0 | 0 | 0 | 0 | 0 | 0 | 0 |  | 0 | 0 | 0 | 0 |  |  | 
YYGFP (listed as Solanum lycopersicum) [TsORF18-2-5aa-1] | 0 | 0 | 0 | 0 | 0 | 0 | 0 | 0 | 0 |  | 0 | 0 | 0 | 0 |  |  | 
SERTR (listed as Solanum lycopersicum) [TsORF18-2-5aa-8] | 0 | 0 | 0 | 0 | 0 | 0 | 0 | 0 | 0 |  | 0 | 0 | 0 | 0 |  |  | 
FSERTRKF (listed as Solanum lycopersicum) [TsORF18-2-8aa-7] | 0 | 0 | 0 | 0 | 0 | 0 | 0 | 0 | 0 |  | 0 | 0 | 0 | 0 |  |  | 
YGFPA (listed as Solanum lycopersicum) [TsORF18-2-5aa-2] | 0 | 0 | 0 | 0 | 0 | 0 | 0 | 0 | 0 |  | 0 | 0 | 0 | 0 |  |  | 
